Some results are limits rather than exact numbers.

Holding throughout (experiment): Kinase Assay
The target of assay [1] is Phosphatidylinositol 4,5-bisphosphate 3-kinase catalytic subunit alpha isoform (Homo sapiens, UniProt P42336). The text has this: (§1) Kinase assay using PI3K.
The target in assay [2] is T1, Phosphatidylinositol 4,5-bisphosphate 3-kinase catalytic subunit delta isoform (Homo sapiens, UniProt O00329).
T1 sequence (O00329 whole entry): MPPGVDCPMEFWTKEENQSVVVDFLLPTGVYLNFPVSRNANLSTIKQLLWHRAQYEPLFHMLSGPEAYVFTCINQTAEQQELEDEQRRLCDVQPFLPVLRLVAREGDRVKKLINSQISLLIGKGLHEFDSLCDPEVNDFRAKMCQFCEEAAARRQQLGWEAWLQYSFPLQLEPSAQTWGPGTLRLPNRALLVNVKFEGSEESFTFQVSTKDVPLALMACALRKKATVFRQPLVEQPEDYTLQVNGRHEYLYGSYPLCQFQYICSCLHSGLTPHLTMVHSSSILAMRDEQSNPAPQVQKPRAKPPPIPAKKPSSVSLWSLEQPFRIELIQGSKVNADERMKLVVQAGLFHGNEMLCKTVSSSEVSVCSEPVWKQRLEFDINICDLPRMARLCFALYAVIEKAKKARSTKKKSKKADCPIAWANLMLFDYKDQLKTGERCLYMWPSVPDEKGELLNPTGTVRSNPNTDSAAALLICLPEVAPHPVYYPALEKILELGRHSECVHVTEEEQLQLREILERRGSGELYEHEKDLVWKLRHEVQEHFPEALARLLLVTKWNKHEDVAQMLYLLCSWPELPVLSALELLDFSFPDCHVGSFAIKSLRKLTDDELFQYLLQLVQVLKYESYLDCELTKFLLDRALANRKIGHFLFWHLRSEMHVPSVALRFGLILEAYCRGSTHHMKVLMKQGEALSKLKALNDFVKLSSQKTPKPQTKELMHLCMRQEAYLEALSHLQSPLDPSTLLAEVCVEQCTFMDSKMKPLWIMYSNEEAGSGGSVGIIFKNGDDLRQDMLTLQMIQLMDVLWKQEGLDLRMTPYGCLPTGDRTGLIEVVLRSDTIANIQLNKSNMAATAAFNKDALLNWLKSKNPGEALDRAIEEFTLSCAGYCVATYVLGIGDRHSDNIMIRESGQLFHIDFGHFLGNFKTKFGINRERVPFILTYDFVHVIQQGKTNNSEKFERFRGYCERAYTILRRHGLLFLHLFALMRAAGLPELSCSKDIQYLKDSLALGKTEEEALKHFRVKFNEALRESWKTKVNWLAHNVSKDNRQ
Description: as §1

Assay [3] concerns the target Phosphatidylinositol 4,5-bisphosphate 3-kinase catalytic subunit beta isoform (Homo sapiens, UniProt P42338).
Description: as §1

Assay [4] concerns the target Phosphatidylinositol 4,5-bisphosphate 3-kinase catalytic subunit gamma isoform (Homo sapiens, UniProt P48736).
Description: as §1

Chain of Phosphatidylinositol 4,5-bisphosphate 3-kinase catalytic subunit alpha isoform (P42336 whole entry, canonical isoform): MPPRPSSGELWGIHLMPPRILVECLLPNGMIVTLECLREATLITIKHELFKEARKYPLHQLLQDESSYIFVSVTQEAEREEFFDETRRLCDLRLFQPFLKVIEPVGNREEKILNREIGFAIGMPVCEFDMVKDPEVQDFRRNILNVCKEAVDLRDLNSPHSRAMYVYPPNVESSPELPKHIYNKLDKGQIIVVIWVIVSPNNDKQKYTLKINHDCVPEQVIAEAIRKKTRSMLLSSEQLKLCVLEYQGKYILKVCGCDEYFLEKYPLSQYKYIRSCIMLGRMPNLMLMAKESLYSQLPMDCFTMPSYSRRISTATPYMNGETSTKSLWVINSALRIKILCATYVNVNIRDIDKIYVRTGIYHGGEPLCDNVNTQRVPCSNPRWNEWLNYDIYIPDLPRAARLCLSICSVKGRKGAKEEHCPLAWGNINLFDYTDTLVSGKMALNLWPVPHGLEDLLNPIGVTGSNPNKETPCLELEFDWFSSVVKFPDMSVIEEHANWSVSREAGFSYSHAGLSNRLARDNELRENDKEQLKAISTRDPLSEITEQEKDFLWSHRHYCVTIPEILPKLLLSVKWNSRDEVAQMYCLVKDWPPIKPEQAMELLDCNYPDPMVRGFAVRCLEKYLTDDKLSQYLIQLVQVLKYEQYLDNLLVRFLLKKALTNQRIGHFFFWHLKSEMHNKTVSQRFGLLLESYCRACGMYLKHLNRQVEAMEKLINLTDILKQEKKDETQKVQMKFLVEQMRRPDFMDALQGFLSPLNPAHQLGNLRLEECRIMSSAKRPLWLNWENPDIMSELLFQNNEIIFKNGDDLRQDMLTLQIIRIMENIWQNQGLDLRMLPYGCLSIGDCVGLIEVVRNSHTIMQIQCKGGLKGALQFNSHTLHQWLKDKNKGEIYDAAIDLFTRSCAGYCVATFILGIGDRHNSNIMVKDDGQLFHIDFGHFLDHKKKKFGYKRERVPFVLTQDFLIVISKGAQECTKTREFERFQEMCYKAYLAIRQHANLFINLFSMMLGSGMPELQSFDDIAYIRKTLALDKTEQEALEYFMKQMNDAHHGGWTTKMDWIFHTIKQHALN
Chain of Phosphatidylinositol 4,5-bisphosphate 3-kinase catalytic subunit gamma isoform (P48736 whole entry, canonical isoform): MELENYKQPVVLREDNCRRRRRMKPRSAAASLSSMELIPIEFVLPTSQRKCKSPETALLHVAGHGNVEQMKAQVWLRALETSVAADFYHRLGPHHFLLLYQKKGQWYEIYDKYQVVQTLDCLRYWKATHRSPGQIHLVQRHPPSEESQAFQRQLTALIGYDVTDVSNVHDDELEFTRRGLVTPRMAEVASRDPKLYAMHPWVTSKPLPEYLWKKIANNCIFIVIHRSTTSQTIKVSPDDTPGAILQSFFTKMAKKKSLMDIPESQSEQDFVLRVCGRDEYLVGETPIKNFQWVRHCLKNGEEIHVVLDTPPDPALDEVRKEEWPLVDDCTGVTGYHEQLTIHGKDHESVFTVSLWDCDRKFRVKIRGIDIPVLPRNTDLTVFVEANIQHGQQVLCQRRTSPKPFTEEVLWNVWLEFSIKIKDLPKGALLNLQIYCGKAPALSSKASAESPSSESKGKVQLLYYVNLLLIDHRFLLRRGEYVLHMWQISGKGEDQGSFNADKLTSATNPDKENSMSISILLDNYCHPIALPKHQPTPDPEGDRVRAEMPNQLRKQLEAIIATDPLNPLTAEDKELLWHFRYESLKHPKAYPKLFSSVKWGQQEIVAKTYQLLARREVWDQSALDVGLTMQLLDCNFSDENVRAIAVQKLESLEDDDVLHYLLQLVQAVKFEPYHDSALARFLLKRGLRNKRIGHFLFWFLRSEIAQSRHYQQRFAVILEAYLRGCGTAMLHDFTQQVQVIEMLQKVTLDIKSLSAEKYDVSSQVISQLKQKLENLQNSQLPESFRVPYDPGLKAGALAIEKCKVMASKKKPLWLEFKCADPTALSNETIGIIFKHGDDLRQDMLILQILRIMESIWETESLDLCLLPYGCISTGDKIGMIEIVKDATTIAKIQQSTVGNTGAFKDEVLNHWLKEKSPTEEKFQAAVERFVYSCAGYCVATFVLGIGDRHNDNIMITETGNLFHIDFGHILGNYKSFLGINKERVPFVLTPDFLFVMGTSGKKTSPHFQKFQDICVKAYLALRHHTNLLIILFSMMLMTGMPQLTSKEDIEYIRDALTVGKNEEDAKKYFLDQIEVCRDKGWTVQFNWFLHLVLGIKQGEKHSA
Chain of Phosphatidylinositol 4,5-bisphosphate 3-kinase catalytic subunit beta isoform (P42338 whole entry, canonical isoform): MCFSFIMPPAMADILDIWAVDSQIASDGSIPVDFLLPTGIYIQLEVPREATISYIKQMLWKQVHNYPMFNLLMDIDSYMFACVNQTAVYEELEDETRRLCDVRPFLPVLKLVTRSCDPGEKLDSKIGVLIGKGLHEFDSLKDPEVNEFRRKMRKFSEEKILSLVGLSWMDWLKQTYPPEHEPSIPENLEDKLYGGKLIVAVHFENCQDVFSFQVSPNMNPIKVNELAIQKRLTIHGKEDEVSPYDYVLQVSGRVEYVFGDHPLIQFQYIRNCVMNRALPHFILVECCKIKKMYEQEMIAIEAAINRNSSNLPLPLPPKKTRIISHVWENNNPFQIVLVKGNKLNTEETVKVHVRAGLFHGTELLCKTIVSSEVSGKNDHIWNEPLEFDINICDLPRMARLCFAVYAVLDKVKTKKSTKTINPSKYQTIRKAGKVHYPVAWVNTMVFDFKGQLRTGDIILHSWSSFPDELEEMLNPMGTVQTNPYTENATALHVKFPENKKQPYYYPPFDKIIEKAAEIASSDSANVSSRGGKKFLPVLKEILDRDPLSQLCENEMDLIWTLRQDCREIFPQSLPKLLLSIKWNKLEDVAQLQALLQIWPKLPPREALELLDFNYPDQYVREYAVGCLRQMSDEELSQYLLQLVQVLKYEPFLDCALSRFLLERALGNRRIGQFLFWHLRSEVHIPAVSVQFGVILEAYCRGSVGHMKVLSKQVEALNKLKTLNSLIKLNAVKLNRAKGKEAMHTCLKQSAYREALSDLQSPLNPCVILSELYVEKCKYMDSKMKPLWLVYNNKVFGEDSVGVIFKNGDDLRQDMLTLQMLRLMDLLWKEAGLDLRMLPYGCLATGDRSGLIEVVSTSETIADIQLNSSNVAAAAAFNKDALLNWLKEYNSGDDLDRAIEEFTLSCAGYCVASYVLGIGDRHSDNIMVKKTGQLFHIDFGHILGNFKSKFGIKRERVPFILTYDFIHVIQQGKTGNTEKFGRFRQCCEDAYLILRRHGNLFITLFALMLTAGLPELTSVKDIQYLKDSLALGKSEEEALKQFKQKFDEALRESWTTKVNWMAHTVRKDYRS

A word on the IC50: it is the concentration that inhibits the measured activity by half. The low end stands for inhibition by little substance, the high end for a need for much substance. `Cn1ncc2c(-c3cccc(O)c3)nc(N3CCOCC3)nc21` [ETP-45798, 9] showed an IC50 in assay [1] of 0.114 µM. This counts as sub-micromolar.
In assay [1], `Cn1ncc2c(NCc3ccccc3)nc(N3CCOCC3)nc21` [ETP-45416, 3b] gave an IC50 of 36.8 µM. This IC50 lies about 320-fold higher than the previous one.
Consider `CC1CN(c2nc(Nc3ccccc3)c3cnn(C)c3n2)CC(C)O1` (stereo unspecified) [ETP-6531], for which, in assay [1], the IC50 stood at 12.6 µM.
On to `COc1cccc(Nc2nc(N3CCOCC3)nc3c2cnn3C)c1`, for which the IC50 in assay [1] turned out to be 0.4 µM.
Same read-out and setting: to `CSc1cccc(-c2nc(N3CCOCC3)c3cnn(C)c3n2)c1` [ETP-45875, 16] belongs 3.53 µM.
Take `CC(C)Oc1nc(N2CCOCC2)nc2c1cnn2C` [ETP-45797, 7]: in assay [1], the IC50 came to 16.1 µM.
Still for that read-out and setting: for `COc1cccc(Nc2nc(N3CCN(C)CC3)nc3c2cnn3C)c1` [ETP-7146] the value was 9.2 µM; for `COc1cccc(-c2nc(N3CCOCC3)c3cnn(C)c3n2)c1` [ETP-45871, 15], 5.8 µM.
The same measure, in the same setting: for `Cc1cccc(Oc2nc(N3CCOCC3)nc3c2cnn3C)c1` [ETP-45874, 11] the value was 0.97 µM; for `Cn1ncc2c(OCc3ccccc3)nc(N3CCOCC3)nc21` [ETP-45415, 3a], 35.1 µM.
Same read-out and setting: to `CN1CCN(c2nc(Nc3cccc(Cl)c3)c3cnn(C)c3n2)CC1` [ETP-5935] belongs 4.9 µM.
`Cn1ncc2c(=O)[nH]c(N3CCOCC3)nc21` [ETP-45700, 6]: the IC50 in assay [1] is over 50 µM.
The same measure, in the same setting: to `COC(=O)c1cccc(-c2nc(N3CCOCC3)c3cnn(C)c3n2)c1` [ETP-45867, 14] belongs 0.84 µM.
As to `Cn1ncc2c(N3CCOCC3)nc(-c3cccc(O)c3)nc21` [ETP-45658, 13], the IC50 was found to be 30 nM in assay [2], 129 nM in assay [3] and 717 nM in assay [4].
For `Cn1ncc2c(SCc3ccccc3)nc(N3CCOCC3)nc21` [ETP-45654, 3c], the IC50 in assay [1] was over 50 µM.
The same measure, in the same setting: for `Cn1ncc2c(-c3cccc(NS(C)(=O)=O)c3)nc(N3CCOCC3)nc21` [ETP-45799, 10] the value was 1.66 µM.
The molecule `Cn1ncc2c(Oc3ccc(Cl)cc3)nc(N3CCOCC3)nc21` [ETP-45419, 3d] came in with an IC50 in assay [1] of 5.51 µM.
The same measure, in the same setting: to `CC(=O)Nc1cccc(-c2nc(N3CCOCC3)c3cnn(C)c3n2)c1` [ETP-45876, 17] belongs 7 µM; to `COc1cccc(Nc2nc(N3CCN(CCO)CC3)nc3c2cnn3C)c1` [ETP-8162], 12.6 µM.

The values above are taken from BindingDB's records for doi:10.1074/jbc.M109.038984 (Spanish National Cancer Research Center (Cnio), 2009).
